Laboratory results published in US20080206198A1, “Compounds and methods for pharmico-gene therapy of epithelial sodium channel associated disorders” (priority 2003, published 2008).
Peptide text beside a SMILES is read from it. * marks the point of attachment. Cbz = O=C(OCc1ccccc1)*

What was measured:
[1] = test system: polarized bronchial epithelia cells; assay: S^35-labeled rAAV binding/entry and in situ localization in polarized bronchial epithelia; assay type: cell-based, human
Experimental: Viral binding/entry assays and in situ localization of viral particles. To assess the binding of rAAV to polarized bronchial epithelia cells, S^35-labeled AV.GFP3ori was applied to either the apical or basal surface (MOI=50,000 particles/cell), followed by incubation at 4° C. for 60 minutes. Combined binding/entry of rAAV into differentiated airway epithelia was measured under the same conditions, except that the cultures were incubated at 37° C. for an additional 2-24 hours before they were harvested. These combined viral binding/entry assays were performed under identical infection conditions to those used for functional studies of rAAV transduction with transgene expression as an endpoint. After washing three times in PBS, cells were lysed in situ by the addition of 5 ml of liquid scintillation cocktail at room temperature for 5 minutes, and the radioactivity was quantitated in a scintillation counter.
To analyze the subcellular localization of the rAAV particles within polarized human bronchial epithelial cells, infection was performed by applying S^35 labeled virus (MOI=50,000 particles/cell) to either the mucosal or serosal surface. At 2 hours post-infection, transwells were washed with medium three times and fixed in 4% paraformaldehyde overnight prior to cryoprotection and embedding for frozen sectioning. 10 μm frozen sections were overlaid with photoemulsion and developed for 5 weeks according to a previously published protocol (Duan et al., 1998).

[2] = test system: polarized human airway epithelial cells; assay type: cell-based
Experimental: Primary culture of human bronchial epithelia and reagents utilized. Primary human airway epithelial cells were collected by enzymatic digestion of bronchial samples from lung transplants, as previously described (Kondo et al., 1991; Zabner et al., 1996). Isolated primary airway cells were seeded at a density of 5×10^5 cells/cm^2 onto collagen-coated Millicell-HA culture inserts (Millipore Corp., Bedford, Mass.). Primary cultures were grown at the air-liquid interface for more than 2 weeks, by which time differentiation into a mucociliary epithelium occurs. The culture medium, used to feed only the basolateral side of the cells, contained 49% DMEM, 49% Ham's F12 and 2% Ultraser G (BioSepra, Cedex, France). Dimethyl Sulphoxide (DMSO), camptothecin (Camp), etoposide (Etop), aphidicolin (Aphi), hydroxyurea (HU) and genistein (Geni) were purchased from Sigma (St. Louis, Mo.). Tripeptidyl aldehyde proteasome inhibitors N-Acetyl-L-Leucyl-L-Leucyl-Norleucine (LLnL) and benzyloxycarbonyl-L-leucyl-L-leucyl-L-leucinal (Z-LLL) were purchased from Calbiochem-Novabiochem Corporation (La Jolla, Calif.). Ubiquitin ligase (E3) inhibitors were obtained from Bachem Bioscience Inc. (King of Prussia, Pa.). Anti-AAV capsid monoclonal antibody (Anti-VP1, 2 and 3) was purchased from American Research Products (Belmont, Mass.) and anti-ubiquitin antibody was purchased from Santa Cruz Biotechnology Inc. (Santa Cruz, Calif.).
Transduction of polarized airway epithelial cells and primary human fibroblasts. rAAV infection of fully differentiated bronchial cells was performed as described in Duan et al. (1998). For infections from the apical surface of the airway cells, 5 μl rAAV was mixed with 50 μl of culture media and applied directly onto the apical compartment of Millicell inserts (MOI=10,000 particles/cell). During apical infection, the basolateral side of the Millicell was continuously bathed in culture media. Gene transfer to the basal side was performed by inverting Millicell inserts and applying viral vector to the bottom of the supporting filter membrane in a 50 μl volume for 2 hours. Subsequently, Millicell inserts were returned to the upright position, in the continued presence of the original viral inoculum plus an additional 450 μl of media. For both apical and basolateral infections, rAAV containing media was removed after 24 hours and replaced with either fresh culture media (for the basal side) or exposed to air (for the apical side). To test the effect of different agents on the efficiency of AAV transduction in polarized airway cells, 1 μl of each solution was mixed with AAV prior to infection of airway epithelia. Agents were usually presented during the 24 hours AAV infection period unless indicated otherwise. Most of the agents were dissolved in DMSO except for hydroxyurea (dissolved in phosphate buffered saline), H-Leu-Ala-OH (dissolved in 0.9% glacial acetic acid) and H-His-Ala-OH (dissolved in 50% methanol). The working concentrations of the agents were as follows: 0.1 μM camptothecin, 10 μM etoposide, 5 μg/ml aphidicolin, 40 mM hydroxyurea, 50 μM genistein, 40 μM LLnL and 4 μM Z-LLL. When the ubiquitin ligase (E3) inhibitors (H-Leu-Ala-OH and H-His-Ala-OH) were used, airway cells were pretreated with a combination of both inhibitors at a final concentration of 2 mM for 60 minutes prior to infection, followed by the continued presence of inhibitor (0.2 mM) during the entire 24 hours infection period from the basolateral surface. Studies involving EGTA treatment were performed by transiently treating the apical membrane of polarized airway epithelia with 3 mM EGTA in water for 10 minutes (Duan et al., 1998). Following hypotonic EGTA treatment, cultures were washed twice with culture medium and infected with rAAV in the presence or absence of 40 μM LLnL. Human primary fibroblast cells (P4) were maintained in 10% fetal bovine serum (FBS), 1% penicillin and streptomycin, and 89% DMEM. […]

Huh-7 cells = assay: AAV2 FLAG-Luc transduction of Huh-7 cells; assay type: cell-based; conditions: 20 to 80 μM
Source text: (§1) A. To screen for agents that enhance rAAV transduction, any number of cells can be used. A range of concentrations of the agent to be tested can be determined based on, for instance desirable profiles of the agent, desirable toxicity profiles of the agent and/or concentration of the agents employed in vivo. The usefulness of the cell type chosen for the screen can be confirmed by testing compounds, e.g., proteasome inhibitors such as LLnL and ZLL which are known to increase rAAV transduction. For example, a AAV2 FLAG-Luc vector was employed to transduce HeLa, ferret fibroblasts, IB3 and Huh (liver) cells in the presence or absence of the proteasome inhibitor MG132. MG132 was confirmed to enhance AAV transduction in all cell types tested: HeLa cell transduction was enhanced about 500-fold at 80 μM, and 200-fold at 40 μM, MG132; ferret fibroblast cell transduction was enhanced about 200-fold at 20 μM, and 17-fold at 4 μM, MG132; IB3-1 cell transduction was enhanced about 30 to 70-fold at 20 to 80 μM MG132; and Huh-7 cell transduction was enhanced about 15-fold at 20 to 80 μM MG132. There was no difference in rAAV transduction efficiency in HeLa cells when either DMSO or ETOH was used as a vehicle for MG132. B. HeLa cells were selected to screen for additional agents that enhance rAAV transduction, although any cell strain or line; or primary cells, may be employed. […]

IB3-1 cells = assay: AAV2 FLAG-Luc transduction of IB3-1 cells; assay type: cell-based, human; conditions: 20 to 80 μM
Source text: as §1

| Compound | rAAV binding ([1]; 4° C.) | uptake of S^35 labeled rAAV ([1]; 2 hour infection period at 37° C.) | intracellular distribution of radiolabeled rAAV particles ([1]; 2 hours post-infection, photoemulsion overlay) | intracellular radioactivity ([1]; 24 hours post-infection) | augmentation in transgene expression ([2]; applied to the serosal surface along with rAAV, 2 days post infection, 40 μM LLnL) | time of peak augmentation in AAV transduction ([2]; co-administration with rAAV to the mucosal surface) | toxicity of continual administration ([2]; continual administration after basolateral infection) | time of transient peak in gene expression ([2]; rAAV infection from the serosal surface) | enhancement of Huh-7 cell transduction (Huh-7 cells) | enhancement of IB3-1 cell transduction (IB3-1 cells) |
| --- | --- | --- | --- | --- | --- | --- | --- | --- | --- | --- |
| N-acetyl-L-leucinyl-L-leucinal-L-norleucinal [LLnL] | no significant effect | not altered | significant shift to nuclear associated grains | very significant decrease | greater than 200 fold | 22 days post-infection | toxic to cells | 72 hours post-infection | – | – |
| CC(C)C[C@@H](C=O)NC(=O)[C@H](CC(C)C)NC(=O)[C@H](CC(C)C)NC(=O)OCc1ccccc1 [Z-LLL, N-carbobenzoxyl-L-leucinyl-L-leucinyl-L-leucinal] (Cbz-Leu-Leu-Leu-aldehyde) | – | – | – | – | – | – | – | – | about 15 fold | 30 to 70 fold |
